Data from ChEMBL document CHEMBL1154059, “Synthesis and biological evaluation of novel 4,5-bis(dialkylaminoalkyl)-substituted acridines as potent telomeric G-quadruplex ligands” (Eur J Med Chem, 2009).

What was measured:
[1] = molecular target: Telomerase reverse transcriptase (Homo sapiens, UniProt O14746); test: Inhibition of human telomerase in HT1080 cells by TRAP assay
Nucleic Acid [2] = test: Binding affinity to human telomeric DNA G-quadruplex assessed as change in melting temperature at 20 uM by FRET assay; assay type: nucleic-acid assay
Nucleic Acid [3] = test: Binding affinity to human telomeric DNA G-quadruplex assessed as change in melting temperature at 1 uM by FRET assay; assay type: nucleic-acid assay
Nucleic Acid [4] = test: Binding affinity to human telomeric DNA G-quadruplex assessed as change in melting temperature at 5 uM by FRET assay; assay type: nucleic-acid assay
Nucleic Acid [5] = test: Binding affinity to human telomeric DNA G-quadruplex assessed as change in melting temperature at 10 uM by FRET assay; assay type: nucleic-acid assay

Sequence of Telomerase reverse transcriptase (O14746 whole entry): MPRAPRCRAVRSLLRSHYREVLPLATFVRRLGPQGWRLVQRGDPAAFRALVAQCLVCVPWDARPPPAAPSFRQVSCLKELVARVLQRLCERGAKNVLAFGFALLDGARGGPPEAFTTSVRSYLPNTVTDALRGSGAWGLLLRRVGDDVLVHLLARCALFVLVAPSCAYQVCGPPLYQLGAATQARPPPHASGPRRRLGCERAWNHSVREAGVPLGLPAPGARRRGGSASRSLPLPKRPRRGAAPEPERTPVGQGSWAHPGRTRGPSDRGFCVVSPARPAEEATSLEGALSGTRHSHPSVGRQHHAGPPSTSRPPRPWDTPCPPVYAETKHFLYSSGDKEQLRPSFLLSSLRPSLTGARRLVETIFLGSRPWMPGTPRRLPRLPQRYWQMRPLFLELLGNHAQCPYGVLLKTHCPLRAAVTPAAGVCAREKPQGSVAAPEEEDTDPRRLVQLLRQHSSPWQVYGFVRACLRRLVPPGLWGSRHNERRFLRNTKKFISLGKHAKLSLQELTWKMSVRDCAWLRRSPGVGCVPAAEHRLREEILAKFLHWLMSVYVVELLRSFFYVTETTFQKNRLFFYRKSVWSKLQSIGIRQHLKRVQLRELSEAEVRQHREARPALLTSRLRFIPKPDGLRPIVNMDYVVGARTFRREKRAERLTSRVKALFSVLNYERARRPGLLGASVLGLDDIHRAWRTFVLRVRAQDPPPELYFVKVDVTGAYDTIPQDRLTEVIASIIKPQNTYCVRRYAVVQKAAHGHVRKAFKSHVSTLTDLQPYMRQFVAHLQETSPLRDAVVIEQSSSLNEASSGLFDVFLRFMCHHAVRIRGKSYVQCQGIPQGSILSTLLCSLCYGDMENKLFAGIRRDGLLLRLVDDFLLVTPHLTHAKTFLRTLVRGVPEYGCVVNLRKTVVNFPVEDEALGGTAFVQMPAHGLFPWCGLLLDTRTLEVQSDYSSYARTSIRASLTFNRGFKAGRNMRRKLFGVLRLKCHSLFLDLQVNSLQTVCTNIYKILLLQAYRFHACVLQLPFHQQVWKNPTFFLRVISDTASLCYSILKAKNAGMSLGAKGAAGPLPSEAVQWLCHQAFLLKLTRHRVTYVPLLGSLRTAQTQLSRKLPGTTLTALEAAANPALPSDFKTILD

Row | IC50 [1] [µM] | ΔTm (Nucleic Acid [2]) [°C] | ΔTm (Nucleic Acid [3]) [°C] | ΔTm (Nucleic Acid [4]) [°C] | ΔTm (Nucleic Acid [5]) [°C] | Structure (SMILES)
1 | 12 | 10.2 | 1.3 | 3.7 | 8.1 | O=C(CCCN1CCCCC1)NCc1cccc2cc3cccc(CNC(=O)CCCN4CCCCC4)c3nc12
2 | 30 | 12.6 | 2.6 | 6.8 | 8.8 | C[N+]1(CC(=O)NCc2cccc3cc4cccc(CNC(=O)C[N+]5(C)CCCCC5)c4nc23)CCCCC1
3 | 27 | 9.8 | 0.3 | 4.3 | 7.4 | C[N+]1(CC(=O)NCc2cccc3cc4cccc(CNC(=O)C[N+]5(C)CCCC5)c4nc23)CCCC1
4 | 6 | 7.6 | 0 | 2.8 | 4.3 | O=C(CCN1CCCC1)NCc1cccc2cc3cccc(CNC(=O)CCN4CCCC4)c3nc12
5 | 13 | 16.4 | 3 | 8.8 | 11.9 | O=C(CCCN1CCCC1)NCc1cccc2cc3cccc(CNC(=O)CCCN4CCCC4)c3nc12
6 | – | 4.8 | – | – | – | c1ccc(CNCc2cccc3cc4cccc(CNCc5ccccc5)c4nc23)cc1
7 | > 30 | 3.6 | – | – | – | CN(C)CC(=O)NCc1cccc2cc3cccc(CNC(=O)CN(C)C)c3nc12
8 | – | 0 | – | – | – | c1cnc(NCc2cccc3cc4cccc(CNc5ncccn5)c4nc23)nc1
9 | > 30 | 4.6 | 0 | 0.5 | 2.6 | CN1CCN(CCC(=O)NCc2cccc3cc4cccc(CNC(=O)CCN5CCN(C)CC5)c4nc23)CC1
10 | 7.3 | 16.7 | – | 5.9 | – | C[N+](C)(C)CC(=O)NCc1cccc2cc3cccc(CNC(=O)C[N+](C)(C)C)c3nc12
11 | 4 | 12.6 | 2.3 | 6.8 | 8.7 | C[N+]1(CCC(=O)NCc2cccc3cc4cccc(CNC(=O)CC[N+]5(C)CCCC5)c4nc23)CCCC1
12 | – | 2.4 | – | – | – | CCN(CC)CC(=O)NCc1cccc2cc3cccc(CNC(=O)CN(CC)CC)c3nc12
13 | – | 14.6 | 0 | 0.6 | – | O=C(CN1CCCCC1)NCc1cccc2cc3cccc(CNC(=O)CN4CCCCC4)c3nc12
14 | > 30 | 2.6 | – | 1.4 | – | O=C(CN1CCCC1)NCc1cccc2cc3cccc(CNC(=O)CN4CCCC4)c3nc12
15 | 0.15 | 17.7 | – | 6.7 | – | CN(C)CCCNCc1cccc2cc3cccc(CNCCCN(C)C)c3nc12
16 | – | 10.7 | 2.6 | 7.2 | 9.1 | CCN(CC)CCC(=O)NCc1cccc2cc3cccc(CNC(=O)CCN(CC)CC)c3nc12
17 | 5.6 | 10.2 | – | 4 | – | CN(C)CCNCc1cccc2cc3cccc(CNCCN(C)C)c3nc12
18 | > 30 | 10.4 | 2.2 | 6.6 | 7.3 | O=C(CCN1CCCCC1)NCc1cccc2cc3cccc(CNC(=O)CCN4CCCCC4)c3nc12
19 | > 30 | 8.1 | – | 5 | – | CN(C)CCC(=O)NCc1cccc2cc3cccc(CNC(=O)CCN(C)C)c3nc12
20 | 3 | 11 | 2.1 | 5.7 | 8.2 | C[N+](C)(C)CCC(=O)NCc1cccc2cc3cccc(CNC(=O)CC[N+](C)(C)C)c3nc12
21 | > 30 | 7.3 | 0 | – | – | NCc1cccc2cc3cccc(CN)c3nc12
22 | 0.09 | – | 29.1 | 34.7 | 41.1 | CN(C)c1ccc(Nc2c3ccc(NC(=O)CCN4CCCC4)cc3nc3cc(NC(=O)CCN4CCCC4)ccc23)cc1
